Measurements reported in US10906888B2, “Pyrimidine carboxamides as inhibitors of Vanin-1 enzyme” (Pfizer Inc., priority 2016, dated 2021).

The compounds below were run against human vanin-1 (Homo sapiens (Human), UniProt O95497) (assay: Human Vanin-1 Enzyme Assay 1). Settings: 25 pM human vanin-1, 50 uM pantetheine 7-amino-4-trifluoromethylcoumarin substrate.
Type: biochemical
Description: Human Vanin-1Enzyme Assay 1.
The in vitro assay measures enzymatic cleavage of the fluorescently-labeled vanin substrate, pantetheine 7-amino-4-trifluoromethylcoumarin, by human vanin-1.
The vanin-1 protein was prepared in-house from a construct expressing the extracellular domain of human vanin-1 (GenBank ID NM_004666) preceded N-terminally by the honey bee melittin signal peptide, a GSG linker sequence, a His6× tag and a FLAG tag. The secreted, soluble enzyme was purified from the conditioned medium from a CHO cell line stably expressing the resulting protein. Enzyme purification was performed through sequential Ni NTA and size-exclusion chromatography steps.
Intermediate concentrations were prepared by diluting in DMSO in a four-fold series for a total of 11 data points.
To begin the assay 100 nL was transferred from the compound plate to the assay plate. Next, 15 μL of the vanin-1 working solution were transferred to the assay plate. The inhibitor and enzyme were incubated at room temperature for 30 minutes. The enzyme reaction was then initiated by the addition of 5 μL of 200 μM pantetheine 7-amino-4-trifluoromethylcoumarin prepared in assay buffer. […] The final concentration of DMSO was 0.5%.

Sequence of human vanin-1 (O95497 22-491): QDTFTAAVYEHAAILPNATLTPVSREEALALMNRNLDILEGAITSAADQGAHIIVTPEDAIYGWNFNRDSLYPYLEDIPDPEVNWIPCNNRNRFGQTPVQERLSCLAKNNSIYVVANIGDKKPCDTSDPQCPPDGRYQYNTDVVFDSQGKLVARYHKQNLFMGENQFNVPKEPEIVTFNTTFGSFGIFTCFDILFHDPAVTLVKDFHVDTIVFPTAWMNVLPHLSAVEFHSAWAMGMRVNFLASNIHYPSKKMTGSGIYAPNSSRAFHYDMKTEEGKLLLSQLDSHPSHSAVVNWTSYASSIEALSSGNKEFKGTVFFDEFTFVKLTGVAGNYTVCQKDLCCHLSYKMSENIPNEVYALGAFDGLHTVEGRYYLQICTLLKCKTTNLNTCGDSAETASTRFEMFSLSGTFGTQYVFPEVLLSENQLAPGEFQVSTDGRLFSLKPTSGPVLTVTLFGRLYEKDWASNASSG

| Compound | IC50 [nM] |
| --- | --- |
| O=C(c1cnc(NCc2cncnc2)nc1)N1CCCCC1 [Example 187] | 83.7 |
| O=C(c1cnc(NC2(c3cncnc3)CC2)nc1)N1CCC(C2(O)CCCC2)CC1 [Example 101] | 1360 |
| CO[C@@H]1CN(C(=O)c2cnc(NC3(c4cncnc4)CC3)nc2)C[C@H]1F [Example 84] | 75.4 |
| CC1(CO)CCN(C(=O)c2cnc(NC3(c4cncnc4)CC3)nc2)CC1 [Example 83] | 55.1 |
| NC(=O)[C@@H]1CCCN1C(=O)c1cnc(NCc2cccnc2)nc1 [Example 32] | 20000 |
| CC(=O)N1CCN(C(=O)c2cnc(NCc3cccnc3)nc2)CC1 [Example 24] | 749 |
| O=C(c1cnc(NCc2cnc(C(F)(F)F)nc2)nc1)N1CC2(CCOCC2)C1 [Example 169] | 158 |
| O=C(c1cnc(NC2(c3cncnc3)CC2)nc1)N1CCCC(F)C1 (stereo not drawn) [Example 93] | 40.5 |
| O=C(c1cnc(NC2(c3cncnc3)CC2)nc1)N1CCOCC1 [Example 109] | 249 |
| O=C(c1cnc(NCc2cccnc2)nc1)N1CCCC2(COC2)C1 [Example 31] | 3090 |
| C[C@H]1CN(C(=O)c2cnc(NC3(c4cncnc4)CC3)nc2)CCO1 [Example 107] | 38.6 |
| COCC1COCCN(C(=O)c2cnc(NC3(c4cncnc4)CC3)nc2)C1 (stereo not drawn) [Example 85] | 167 |
| C[C@H](Nc1ncc(C(=O)N2CCC3(CN(C)C3)C2)cn1)c1cnccn1 [Example 122] | 43.9 |
| O=C(c1cnc(NCc2cccnc2)nc1)N1CCCC(O)C1 (stereo not drawn) [Example 22] | 559 |
| O=C(c1cnc(NC2(c3cncnc3)CC2)nc1)N1CCCC2(CCCC[C@H]2O)C1 (stereo partly drawn) [Example 100] | 135 |
| O=C(c1cnc(NCc2cccnc2)nc1)N1C[C@@H]2[C@@H](CO)[C@@H]2C1 [Example 18] | 385 |
| Cc1nc(NCc2cnccn2)ncc1C(=O)N1CCC2(CCOCC2)C1 [Example 139] | > 17600 |
| NC(=O)CC1CCN(C(=O)c2cnc(NCc3cccnc3)nc2)CC1 [Example 30] | 2170 |
| C[C@@H]1COCCN1C(=O)c1cnc(NC2(c3cncnc3)CC2)nc1 [Example 103] | 590 |
| O=C(c1cnc(NC2(c3cncnc3)CC2)nc1)N1CC2CCC1CO2 (stereo not drawn) [Example 105] | 36 |
| O=C(c1cnc(NC2(c3cncnc3)CC2)nc1)N1CCC(C(F)F)CC1 [Example 81] | 102 |
| C[C@@H]1CN(C(=O)c2cnc(NC3(c4cncnc4)CC3)nc2)CCO1 [Example 99] | 591 |
| NC(=O)C1CCN(C(=O)c2cnc(NCc3cccnc3)nc2)CC1 [Example 29] | 1920 |

| Compound | IC50 [nM] |
| --- | --- |
| C[C@@H](Nc1ncc(C(=O)N2CCC3(CCOCC3)C2)cn1)c1ccnnc1 [Example 154] | 337 |
| CCOC1CCN(C(=O)c2cnc(NCc3cccnc3)nc2)C1 (stereo not drawn) [Example 10] | 75.9 |
| O=C(c1cnc(NCc2cccnc2)nc1)N1CCC(O)CC1 [Example 21] | 528 |
| O=C(c1cnc(NC2(c3cncnc3)CC2)nc1)N1CCC2(CCO2)CC1 [Example 34] | 47.2 |
| O=C(c1cnc(NCc2cccnc2)nc1)N1CCC(CO)C1 (stereo not drawn) [Example 11] | 81.7 |
| O=C(Nc1ncc(C(=O)N2CCC3(CCOCC3)C2)cn1)c1cncnc1 [Example 205, N-[5-(8-oxa-2-azaspiro[4.5]dec-2-ylcarbonyl)pyrimidin-2-yl]pyrimidine-5-carboxamide] | 8800 |
| O=C(c1cnc(NCCc2cncnc2)nc1)N1CCC2(CCOCC2)C1 [Example 181] | 200 |
| CC1COCCN(C(=O)c2cnc(NC3(c4cncnc4)CC3)nc2)C1 (stereo not drawn) [Example 38] | 62.6 |
| O=C(c1cnc(NC2(c3cncnc3)CC2)nc1)N1CCC(C(O)C(F)(F)F)CC1 (stereo not drawn) [Example 60] | 2850 |
| O=C(c1cnc(NCc2cccnc2)nc1)N1CCn2ccnc2C1 [Example 8] | 37.1 |
| CO[C@@H]1[C@@H]2CC[C@H]1CN(C(=O)c1cnc(NCc3cccnc3)nc1)C2 [Example 12] | 94.1 |
| C[C@H](Nc1ncc(C(=O)N2CC3CN(C)CC3C2)cn1)c1cnccn1 (stereo partly drawn) [Example 127] | 587 |
| O=C(c1cnc(NC2(c3cncnc3)CC2)nc1)N1CCC(C(F)(F)F)CC1 [Example 63] | 421 |
| O=C(c1cnc(NCc2cnccn2)nc1)N1C[C@H](O)[C@@H](N2CCOCC2)C1 [Example 115] | 16000 |
| O=C(c1cnc(NCc2cccnc2)nc1)N1CC2CCC(CC2)C1 [Example 27] | 1370 |
| C[C@@H]1CCCN1C(=O)c1cnc(NC2(c3cncnc3)CC2)nc1 [Example 76] | 122 |
| O=C(c1cnc(OCc2cncnc2)nc1)N1CCC2(CCOCC2)C1 [Example 203, 8-oxa-2-azaspiro[4.5]dec-2-yl[2-(pyrimidin-5-ylmethoxy)pyrimidin-5-yl]methanone] | 1090 |
| O=C(c1cnc(NC2(c3cncnc3)CC2)nc1)N1CCCC1C(F)(F)F (stereo not drawn) [Example 73] | 829 |
| O=C(c1cnc(NC2(c3cncnc3)CC2)nc1)N1CCC(O)(C(F)(F)F)CC1 [Example 90] | 348 |
| Cc1ccc(C2(Nc3ncc(C(=O)N4CC5(CCOCC5)C4)cn3)CC2)cn1 [Example 176] | 0.911 |
| C[C@H](Nc1ncc(C(=O)N2C[C@H](O)[C@@H](N3CCOCC3)C2)cn1)c1cnccn1 [Example 113] | 508 |
| Cc1ccc(C2(Nc3ncc(C(=O)N4CCC5(CCOCC5)C4)cn3)CC2)cn1 [Example 175] | 0.24 |
| O=C(c1cnc(NC2(c3cncnc3)CC2)nc1)N1CCCC[C@H]1CCO [Example 80] | 545 |

Further lines, results first:

| IC50 [nM] | Compound |
| --- | --- |
| 0.582 | CCC1(CO)CCN(C(=O)c2cnc(NC3(c4cncnc4)CC3)nc2)C1 (single isomer, unassigned) [Example 201] |
| 0.196 | Cc1cnc(C(C)(C)Nc2ncc(C(=O)N3CC4(CCOCC4)C3)cn2)cn1 [Example 180] |
| 0.349 | O=C(c1cnc(NC2(c3cnccn3)COC2)nc1)N1CCC2(CCOCC2)C1 [Example 132] |
| 35 | O=C(c1cnc(NC2(c3cncnc3)CC2)nc1)N1C[C@H](O)C[C@H](C(F)(F)F)C1 [Example 89] |
| 1.29 | Cc1ncc(C(C)Nc2ncc(C(=O)N3CCC4(CCOCC4)C3)cn2)cn1 (stereo not drawn) [Example 159] |
| 29.6 | C[C@H]1CCCN1C(=O)c1cnc(NC2(c3cncnc3)CC2)nc1 [Example 47] |
| 4.64 | C[C@H](Nc1ncc(C(=O)N2CCN3CC(F)(F)C[C@H]3C2)cn1)c1cnccn1 [Example 118] |
| 2.45 | CCOC1CCCN(C(=O)c2cnc(NC3(c4cncnc4)CC3)nc2)C1 (stereo not drawn) [Example 104] |
| 2.21 | CCC1(OC)CCN(C(=O)c2cnc(NC3(c4cncnc4)CC3)nc2)C1 (stereo not drawn) [Example 192] |
| 21.3 | CO[C@@H]1CCN(C(=O)c2cnc(NC3(c4cncnc4)CC3)nc2)C1 [Example 79] |
| 2.51 | O=C(c1cnc(NC2(c3cncnc3)CC2)nc1)N1C[C@@H]2CCCC[C@]2(CO)C1 (relative stereo) [Example 61] |
| 1.85 | O=C(c1cnc(NC2(c3cncnc3)CC2)nc1)N1CC2CCCC2C1 (stereo not drawn) [Example 69] |
| 12.2 | O=C(c1cnc(NC2(c3cncnc3)CC2)nc1)N1C[C@@H](CO)[C@H](C(F)(F)F)C1 [Example 53] |
| 0.504 | CCC1(CC)CCN(C(=O)c2cnc(NC3(c4cncnc4)CC3)nc2)C1 [Example 37] |
| 1.82 | Cc1cc(C2CCN(C(=O)c3cnc(NC4(c5cncnc5)CC4)nc3)C2)[nH]n1 (stereo not drawn) [Example 65] |
| 20.9 | C[C@H](Nc1ncc(C(=O)N2CCN3CCC[C@@H]3C2)cn1)c1cnccn1 [Example 114] |

| IC50 [nM] | Compound |
| --- | --- |
| 1.35 | O=C(c1cnc(NC2(c3cncnc3)CC2)nc1)N1CCC(c2cc[nH]n2)C1 (stereo not drawn) [Example 43] |
| 0.743 | CC(C)(Nc1ncc(C(=O)N2CC3(CCOCC3)C2)cn1)c1cncnc1 [Example 144] |
| 2.84 | Cc1ncc(C(C)Nc2ncc(C(=O)N3CC4(CCOCC4)C3)cn2)cn1 (stereo not drawn) [Example 160] |
| 0.745 | CC(Nc1ncc(C(=O)N2CCC3(CCOCC3)C2)cn1)c1cncnc1 (stereo not drawn) [Example 183] |
| 20.5 | CS(=O)(=O)C1CCCN(C(=O)c2cnc(NC3(c4cncnc4)CC3)nc2)C1 (stereo not drawn) [Example 198] |
| 3.04 | C[C@H](Nc1ncc(C(=O)N2CCN3CCC[C@H]3C2)cn1)c1cnccn1 [Example 125] |
| 24.2 | C[C@H]1C[C@@H](O)CN(C(=O)c2cnc(NC3(c4cncnc4)CC3)nc2)C1 [Example 86] |
| 17.9 | O=C(c1cnc(NCc2cccnc2)nc1)N1CCC(C(F)(F)F)C1 (stereo not drawn) [Example 7] |
| 3.92 | C[C@H]1CN(C(=O)c2cnc(NC3(c4cncnc4)CC3)nc2)C[C@]1(C)CO (relative stereo) [Example 62] |
| 19.9 | O=C(c1cnc(NC2(c3cncnc3)CC2)nc1)N1CCC2(CCCCO2)CC1 [Example 50] |
| 4.29 | C[C@H](Nc1ncc(C(=O)N2CCC3(CCOCC3)C2)cn1)c1ccnnc1 [Example 153] |
| 5.11 | CCN1CCC2(CCN(C(=O)c3cnc(N[C@@H](C)c4cnccn4)nc3)C2)C1 (stereo partly drawn) [Example 117] |
| 7.5 | O=C(c1cnc(NC2(c3cncnc3)CC2)nc1)N1CCC2(CCCC2)CC1 [Example 49] |
| 3.95 | C[C@H](Nc1ncc(C(=O)N2CCN3C[C@@H](F)C[C@H]3C2)cn1)c1cnccn1 [Example 121] |
| 0.043 | O=C(c1cnc(NC2(c3cnccn3)CCC2)nc1)N1CC2(CCOCC2)C1 [Example 138] |
| 5.42 | O=C(c1cnc(NC2(c3cncnc3)CC2)nc1)N1CCN2C[C@@H](F)C[C@H]2C1 [Example 35] |
